The text below walks through data of PMC12040169 (PLOS Biology, 2025).

The data set can be described thus: in vitro. The conditions noted are these: human, hela cells, % viability.
Broadly, the viability is a read-out of living cells in per cent, often relative to untreated cells. As to `O=C(CSc1nnc(-c2cccs2)n1-c1ccccc1)Nc1ccnc2ccccc12` [CBK267487], the viability at 28.5 h, 10 µM was 94.4%.

Turning to `Cc1ccc([N+](=O)[O-])cc1NC(=O)CSC1=NCCS1` [CBK267489], the viability at 28.5 h, 10 µM was 88.6%.

Turning to `CCn1cc(C(=O)O)c(=O)c2cc(F)c(N3CCN(C(=S)NC(=O)c4c(-c5ccccc5)noc4C)CC3)cc21` [CBK267490], the viability at 28.5 h, 10 µM was 86.8%.

Turning to `CCn1cc(C(=O)O)c(=O)c2cnc(N3CCN(C(=S)NC(=O)c4c(-c5ccccc5)noc4C)CC3)nc21` [CBK267491], the viability at 28.5 h, 10 µM turned out to be 85%.

Regarding `Cc1onc(-c2ccccc2)c1C(=O)NC(=S)Nc1sc2c(c1C#N)CCC2` [CBK267492], the viability at 28.5 h, 10 µM is 89.1%.

Consider `Cc1onc(-c2ccccc2)c1C(=O)NNC(=S)NC(=O)c1ccc(Cl)cc1` [CBK267493], for which the viability at 28.5 h, 10 µM came to 91.1%.

Turning to `CC(C)(C)c1ccc(COn2c(=O)c(-c3ccccc3Cl)[n+]([O-])c3ccccc32)cc1` [CBK267494], the viability at 28.5 h, 10 µM came to 101%.

In the case of `COc1ccc(CCNc2nc3c(c(=O)n(C)c(=O)n3C)n2Cc2ccccc2Br)cc1OC` [CBK267495], the viability at 28.5 h, 10 µM was determined as 96.7%.

For `COCc1ccccc1Cn1cnc2ccccc21` [CBK267496], the viability at 28.5 h, 10 µM is 100%.

As for `O=C(CC1C(=O)N(c2cccc(Cl)c2)C(=O)N1CCc1cccs1)Nc1ccccc1` (stereo not drawn) [CBK267499], the viability at 28.5 h, 10 µM amounted to 79.7%.

`O=C1CC(SCCc2nc3ccccc3[nH]2)C(=O)N1c1ccc(F)cc1` (stereo not drawn) [CBK267500]: the viability at 28.5 h, 10 µM was determined as 88.8%.

As for `CS(=O)(=O)N(CC(=O)Nc1ccc2ccccc2c1)c1ccc(Cl)cc1Cl` [CBK267501], the viability at 28.5 h, 10 µM worked out at 87.6%.

For the compound `O=[N+]([O-])c1ccc(S(=O)(=O)NCCSCc2ccco2)cc1` [CBK267503], the viability at 28.5 h, 10 µM turned out to be 94.1%.

On to `Cc1ccc(SCCNS(=O)(=O)c2ccc3ccccc3c2)cc1` [CBK267504], for which the viability at 28.5 h, 10 µM stood at 88%.

Turning to `O=C(CN1C(=O)c2ccc(Br)cc2C1=O)OCc1ccc(S(=O)(=O)N2CCOCC2)cc1` [CBK267505], the viability at 28.5 h, 10 µM worked out at 84.6%.

Take `CN(c1cccc(NS(=O)(=O)c2ccc3ccccc3c2)c1)S(C)(=O)=O` [CBK267507]: the viability at 28.5 h, 10 µM turned out to be 85.7%.

As for `COc1ccc(C)cc1S(=O)(=O)N(C)CC(=O)Nc1cccc(SC)c1` [CBK267510], the viability at 28.5 h, 10 µM worked out at 101%.

Take `CCN1CCN(c2cc(N3CCN(C(=O)COc4ccccc4F)C(C)C3)c([N+](=O)[O-])cc2F)CC1` (stereo not drawn) [CBK267513]: the viability at 28.5 h, 10 µM amounted to 100%.

For `CC(NC(=O)CSc1ncc(-c2ccccc2)nn1)c1ccccc1` (stereo not drawn) [CBK267514], the viability at 28.5 h, 10 µM is 85.7%.

With `Cn1c2ccccc2c2nnc(SCc3ccc4nonc4c3)nc21` [CBK267515], the viability at 28.5 h, 10 µM was determined as 89.9%.

As to `c1ccc(Cn2c3ccccc3c3nnc(SCc4ccc5nonc5c4)nc32)cc1` [CBK267517], the viability at 28.5 h, 10 µM amounted to 91.5%.

As for `O=C(O)CCc1nn2c3ccccc3n(CCN3CCCCC3)c2nc1=O` [CBK267519], the viability at 28.5 h, 10 µM stood at 97.5%.

On to `Cc1ccc(C(=O)NC(=O)CSc2nc(N)n[nH]2)cc1` [CBK267523], for which the viability at 28.5 h, 10 µM is 90.9%.

For the compound `O=C(CC(C(=O)O)n1cnc([N+](=O)[O-])n1)c1ccc(Br)cc1` (stereo not drawn) [CBK267524], the viability at 28.5 h, 10 µM is 89%.

On to `N#CCCSc1nnc(-c2cccnc2)n1Cc1ccccc1` [CBK267526], for which the viability at 28.5 h, 10 µM was determined as 100%.

With `O=C(CSc1nnc(-c2cccnc2)n1Cc1ccccc1)Nc1ccc(F)cc1` [CBK267528], the viability at 28.5 h, 10 µM came out at 96.8%.

Regarding `CCn1c(Cc2c(C)[nH]c3ccccc23)nnc1SCC(=O)NC12CC3CC(CC(C3)C1)C2` [CBK267529], the viability at 28.5 h, 10 µM is 89.3%.

As to `COCCSc1ccccc1C(=O)Nc1ccc(S(N)(=O)=O)cc1` [CBK267530], the viability at 28.5 h, 10 µM was 83.2%.

Turning to `Cc1ccc(N2CC(C(=O)Nc3ccc(S(=O)(=O)NCC4CCCO4)cc3)CC2=O)cc1` (stereo not drawn) [CBK267532], the viability at 28.5 h, 10 µM came to 91.7%.

For `Cc1c(C(=O)Nc2ccc(S(=O)(=O)NCC3CCCO3)cc2)cccc1[N+](=O)[O-]` (stereo not drawn) [CBK267533], the viability at 28.5 h, 10 µM was found to be 94.5%.

Take `COCCSc1nnc(NS(=O)(=O)Cc2ccccc2)s1` [CBK267535]: the viability at 28.5 h, 10 µM was found to be 97.6%.

In the case of `COc1ccc(C)cc1NC(=O)CSc1nnc(-c2ccccc2Cl)n1-c1ccccc1` [CBK267538], the viability at 28.5 h, 10 µM came to 82.9%.

`O=C(CSc1nnc(-c2cccnc2)n1-c1ccccc1)Nc1cc(C(F)(F)F)ccc1Cl` [CBK267540]: the viability at 28.5 h, 10 µM came to 90.8%.

As for `O=C(CCc1ccccc1)NNC(=O)C1C2C=CC(C2)C1C(=O)O` (stereo not drawn) [CBK267541], the viability at 28.5 h, 10 µM worked out at 94.2%.

On to `O=C(CSC1c2ccccc2Sc2ccccc21)Nc1ccc(C(=O)O)cc1` [CBK267542], for which the viability at 28.5 h, 10 µM came to 111%.

As to `O=C(O)CCC(=O)N1N=C(c2c(-c3ccccc3)c3cc(Br)ccc3[nH]c2=O)CC1c1ccc([N+](=O)[O-])cc1` (stereo not drawn) [CBK267543], the viability at 28.5 h, 10 µM amounted to 104%.

Turning to `Cc1ccc2nc(O)c(C3=NN(C(=O)CCC(=O)O)C(c4ccco4)C3)c(-c3ccccc3)c2c1` (stereo not drawn) [CBK267544], the viability at 28.5 h, 10 µM stood at 91%.

`CS(=O)(=O)Nc1ccc(C2=NN(S(C)(=O)=O)C(c3ccc4nccnc4c3)C2)cc1` (stereo not drawn) [CBK267546]: the viability at 28.5 h, 10 µM was 83.1%.

As for `COc1cccc(-c2nnc(SCc3nc4ccccc4[nH]3)n2N)c1` [CBK267549], the viability at 28.5 h, 10 µM worked out at 91%.

Take `Nn1c(SCc2ccc(Br)cc2)nnc1-c1ccccn1` [CBK267552]: the viability at 28.5 h, 10 µM is 89.5%.

With `Nn1c(SCc2ccc(C(=O)O)cc2)nnc1-c1ccccn1` [CBK267553], the viability at 28.5 h, 10 µM was found to be 90.8%.

For `Cc1sc2nc(SCc3nc4ccccc4[nH]3)n(Cc3ccco3)c(=O)c2c1C` [CBK267554], the viability at 28.5 h, 10 µM came to 112%.

Regarding `Clc1ccc(-n2c(SCc3nc4ccccc4[nH]3)nnc2-c2ccncc2)cc1` [CBK267557], the viability at 28.5 h, 10 µM is 100%.

As for `COc1ccc(-n2c(SCc3nc4ccccc4[nH]3)nc3sc4c(c3c2=O)CCCC4)cc1` [CBK267558], the viability at 28.5 h, 10 µM was 100%.

Turning to `O=C(O)c1ccc(CSc2nnc(-c3ccncc3)n2-c2ccc(Br)cc2)cc1` [CBK267559], the viability at 28.5 h, 10 µM came to 84.9%.

With `COc1ccc(NC(=O)CC2Nc3cccc4cccc(c34)NC2=O)cc1` (stereo not drawn) [CBK267561], the viability at 28.5 h, 10 µM was 93.1%.

On to `Cn1c(=O)n(C)c2cc(S(=O)(=O)NCCC(=O)O)ccc21` [CBK267565], for which the viability at 28.5 h, 10 µM was 105%.

`O=C(CSc1nnc(SCc2cccc3ccccc23)s1)Nc1ccc(F)c(Cl)c1` [CBK267574]: the viability at 28.5 h, 10 µM was determined as 92.1%.

Take `O=C(CSc1nnc(SCc2cccc3ccccc23)s1)c1ccc2c(c1)OCO2` [CBK267576]: the viability at 28.5 h, 10 µM was 100%.

Turning to `CCc1cccc(C)c1NC(=O)CSc1nnc(-c2cccnc2)n1C` [CBK267582], the viability at 28.5 h, 10 µM turned out to be 88.4%.

On to `Cn1c(SCC(=O)Nc2c(F)cc(F)cc2Br)nnc1-c1cccnc1` [CBK267583], for which the viability at 28.5 h, 10 µM came to 90.8%.

In the case of `Cn1c(SCC(=O)Nc2c(F)cc(F)cc2Br)nnc1-c1cnccn1` [CBK267584], the viability at 28.5 h, 10 µM is 97.6%.

For the compound `O=[N+]([O-])c1ccc(CSc2nnc(-c3cnccn3)n2Cc2ccco2)cc1` [CBK267585], the viability at 28.5 h, 10 µM was 100%.

`O=[N+]([O-])c1ccc(CSc2nnc(-c3cccs3)n2Cc2ccco2)cc1` [CBK267588]: the viability at 28.5 h, 10 µM was 86.6%.

Turning to `O=C(CSc1nnc(-c2ccccc2F)n1-c1ccccc1)Nc1ccc2cn[nH]c2c1` [CBK267591], the viability at 28.5 h, 10 µM turned out to be 81.9%.

For `COc1ccc([N+](=O)[O-])cc1NC(=O)Nc1ccc(Cl)c(Cl)c1` [CBK267593], the viability at 28.5 h, 10 µM turned out to be 99.5%.

Turning to `O=C(CCN1C(=O)c2ccccc2C1=O)NC(=S)Nc1ccccc1` [CBK267595], the viability at 28.5 h, 10 µM stood at 108%.

Take `CCOC(=O)c1cc(CC)sc1NC(=O)c1cc2ccccc2o1` [CBK267596]: the viability at 28.5 h, 10 µM turned out to be 88.3%.

For `O=C(CSc1nnc(-c2cccnc2)n1-c1cccc(C(F)(F)F)c1)c1ccc(F)cc1` [CBK267599], the viability at 28.5 h, 10 µM is 87.9%.

In the case of `CCOC(=O)c1ccc(Nc2nnc3nc(C)cc(C)n23)cc1` [CBK267600], the viability at 28.5 h, 10 µM worked out at 93.1%.

Regarding `Cc1cc(C)n2c(Nc3ccc(S(N)(=O)=O)cc3)nnc2n1` [CBK267601], the viability at 28.5 h, 10 µM was determined as 110%.

On to `CS(=O)(=O)N1CCN(c2ccccc2NC(=O)Cc2ccc(Cl)cc2)CC1` [CBK267605], for which the viability at 28.5 h, 10 µM was found to be 94.9%.

In the case of `CCN1CCN(c2c(Cl)cccc2NC(=O)CSc2ccc(Cl)cc2)CC1` [CBK267606], the viability at 28.5 h, 10 µM worked out at 90.7%.

Regarding `CC(C)C(=O)N1CCN(c2ccccc2NC(=O)c2ccc(N3CCCCC3)c([N+](=O)[O-])c2)CC1` [CBK267609], the viability at 28.5 h, 10 µM came to 100%.

With `Cc1ccc2[nH]c(/C(C#N)=C\c3cc(C)n(-c4ccc(S(N)(=O)=O)cc4)c3C)nc2c1` [CBK267611], the viability at 28.5 h, 10 µM amounted to 105%.

Regarding `COc1ccc(S(=O)(=O)N2CCC(C(=O)NCc3cccnc3)CC2)cc1Cl` [CBK267613], the viability at 28.5 h, 10 µM came to 95.2%.

`COc1ccc(S(=O)(=O)N2CCC(C(=O)N3CCN(Cc4ccc5c(c4)OCO5)CC3)CC2)cc1Cl` [CBK267614]: the viability at 28.5 h, 10 µM was 86%.

As to `O=C(COc1ccc(S(=O)(=O)NC2CCCCC2)cc1Cl)Nc1ccc2c(c1)OCO2` [CBK267615], the viability at 28.5 h, 10 µM stood at 90.5%.

In the case of `Cc1ccc(NS(=O)(=O)c2ccc(CCC(=O)N3CCc4ccccc4C3)cc2)cc1` [CBK267616], the viability at 28.5 h, 10 µM is 94.9%.

For the compound `CCOc1ccc(CNc2ccc(CNc3ncn[nH]3)cc2)cc1` [CBK267617], the viability at 28.5 h, 10 µM was found to be 91.7%.

In the case of `C=CCOc1cccc(CNc2nn[nH]n2)c1` [CBK267618], the viability at 28.5 h, 10 µM is 109%.

Regarding `Oc1cccc(C(O)CNCc2ccc(OCc3ccc(Cl)cc3Cl)cc2)c1` (stereo not drawn) [CBK267621C], the viability at 28.5 h, 10 µM worked out at 93%.

For the compound `O=C(Nc1ccc(NC(=O)Nc2cccc(Cl)c2)cc1)Nc1cccc(Cl)c1` [CBK267623], the viability at 28.5 h, 10 µM was 93.9%.

Turning to `CC1CCc2c(sc(NC(=O)c3nc4ncccn4n3)c2C(N)=O)C1` (stereo not drawn) [CBK267631], the viability at 28.5 h, 10 µM was determined as 96.3%.

On to `CC1CC(C(F)F)n2nc(C(=O)O)nc2N1` (stereo not drawn) [CBK267636], for which the viability at 28.5 h, 10 µM was 99.7%.
